From patent US20220275534A1, “Peptide Library Production Method” (The University of Tokyo, priority 2018, published 2022) come the findings set out here.

Positions of bridges follow the written chain, without caps; N, C: chain ends. Non-standard residues stand in square brackets, D forms with d. No end group written: not given here. *: point of attachment. prenyl = prenyl group added to Trp by KgpF, CC(C)=CC*

In one experiment the test system is KgpF. As to the kind of experiment: Prenylation of artificial cyclic peptides with 160 μM KgpF at 0° C., 20 hours (Conditions 13/14 and 19/20; Examples 10, 14, 19; Tables 6 and 18). The settings on record: for MALDI-TOF-MS peak intensity, Number of additions 1 / MALDI-TOF-MS peak intensity, Number of additions 2 / MALDI-TOF-MS peak intensity, Number of additions 0 / MALDI-TOF-MS peak intensity, Number of additions 3: Table 6, 160 μM KgpF, 2 mM DMAPP, 0° C., 20 hours; for MALDI-TOF-MS peak intensity, Number of additions 1: 1 prenyl added; for MALDI-TOF-MS peak intensity, Number of additions 2: 2 prenyl added; for MALDI-TOF-MS peak intensity, Number of additions 0: unmodified peptide peak; for MALDI-TOF-MS peak intensity, Number of additions 3: 3 prenyl added. The class given is biochemical, Microcystis aeruginosa. Details: key: 5: strong intensity; 4: medium intensity; 3: weak intensity; 2: very weak intensity; 1: no peak; N/A: not observed. The method, then:
The artificial cyclic peptides Clone-M1 to M9 shown below were obtained by translation and synthesis in the artificial translation system (Conditions 13) developed by the present inventors. The peptides thus obtained were then reacted with 160 μM KgpF in the system shown in (Conditions 14) at 0° C. for 20 hours.
(Conditions 13) • FIT system: v8s/v11.0 • 19aa-Met: 0.5 mM • ClAc-D-Tyr-tRNA^fMetCUA: 90 μM • Reaction: 37° C., 60 min. • Scale: 2.5 μL scale
After the above reaction was performed, the reaction product was incubated at 25° C. for 12 minutes.
Then, a cyclization reaction was performed under the following conditions. • Translated mixture amount: 2.5 μL (mixture obtained by the above reaction) • EDTA: 18 mM • Reaction: 42° C., 60 min. • Scale: 2.75 μL scale
(Conditions 14) • Translated mixture amount: 2.75 μL (mixture obtained under (Conditions 13)) • KOH: 6.0 mM • Mg(OAc)2: 9.0 mM • Tris-HCl (pH 8.3) 15 mM • KgpF: 160 μM • DMAPP: 2 mM • Reaction: 0° C., 20 hours
The artificial cyclic peptides shown below were obtained by translation and synthesis in the artificial translation system (Conditions 19) developed by the present inventors. The peptides thus obtained were then reacted with 160 μM KgpF in the system shown in (Conditions 20) at 0° C. for 20 hours.
(Conditions 19) • FIT system: v8s/11.0 • 19aa-Met: 0.5 mM • ClAc-D-Tyr-tRNA^fMetCUA: 90 μM • Reaction: 37° C., 60 min. • Scale: 2.5 μL scale
(Conditions 20) • Translated mixture amount: 2.75 μL (mixture obtained under (Conditions 19)) • KOH: 6.0 mM • Mg(OAc)2: 9.0 mM • Tris-HCl (pH 8.3): 15 mM • KgpF: 160 μM • DMAPP: 2 mM • Reaction: 0° C., 20 hours
Then, the compound library was provided for a step of screening cyclic peptides having interaction with an enzyme MetAP1 (Human) as in the scheme shown in FIG. 8. It has been confirmed that with regards to some of the peptides shown in FIG. 10, peptides having these sequences are modified by prenylation as shown in Table 18 by bringing them into contact with KgpF under conditions shown in (Conditions 13) and (Conditions 14).

Another experiment relates to OltF v 2.1. As to the kind of experiment: Modification test of thioether-closed artificial cyclic peptides with 9.13 μM OltF v 2.1 (Example 16; Tables 11 and 12). Details: key: 5: strong intensity; 4: medium intensity; 3: weak intensity; 2: very weak intensity; 1: no peak; N/A: not observed. The settings on record: OltF v 2.1 9.13 μM, DMAPP 2 mM, 37° C., 18 hours. The class given is biochemical, Planktothrix. Here is the method:
The artificial cyclic peptides shown in Table 11 and Table 12 were obtained by translation and synthesis in the artificial translation system (Conditions 23) developed by the present inventors. The peptides thus obtained were then reacted with 9.13 μM OltF in the system shown in (Conditions 24) at 37° C. for 18 hours. It is to be noted that OltF v 2.1 is an enzyme prepared from OltF used in (Conditions 22) while changing a purification manner.
(Conditions 23) • FIT system: v8s/v11.1 • 19aa-Met: 0.5 mM • ClAc-D or L-Tyr-tRNA^fMetCUA: 90 μM • Reaction: 37° C., 60 min. • Scale: 2.5 μL scale
(Conditions 24) • Translated mixture amount: 2.5 μL (mixture obtained under (Conditions 23)) • OltF v 2.1: 9.13 μM • DMAPP: 2 mM • Reaction: 37° C., 18 hours

Where [1] appears, read: Table 18, Conditions 13 and 14 (160 μM KgpF, 0° C., 20 hours), NSGGVS added to C terminal.

Chain of KgpF (as listed by the source): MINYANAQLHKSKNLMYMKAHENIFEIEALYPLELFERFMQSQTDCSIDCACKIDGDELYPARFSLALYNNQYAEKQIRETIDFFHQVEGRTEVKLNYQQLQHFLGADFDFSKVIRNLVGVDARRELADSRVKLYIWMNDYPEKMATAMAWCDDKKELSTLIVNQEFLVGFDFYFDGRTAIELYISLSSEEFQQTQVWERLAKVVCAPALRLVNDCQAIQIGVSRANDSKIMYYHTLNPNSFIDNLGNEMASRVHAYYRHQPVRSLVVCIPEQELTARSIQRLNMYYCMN
Chain of OltF v 2.1 (as listed by the source): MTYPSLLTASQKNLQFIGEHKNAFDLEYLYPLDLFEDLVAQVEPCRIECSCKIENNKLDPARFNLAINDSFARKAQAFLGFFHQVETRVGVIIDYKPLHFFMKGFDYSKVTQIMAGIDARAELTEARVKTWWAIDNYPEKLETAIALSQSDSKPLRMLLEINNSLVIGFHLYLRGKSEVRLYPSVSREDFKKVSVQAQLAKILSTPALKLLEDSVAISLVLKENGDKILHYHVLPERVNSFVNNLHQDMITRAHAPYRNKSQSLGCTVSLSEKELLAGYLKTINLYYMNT

Take “Clone-M5: artificial cyclic peptide containing a plurality of Trps (Ac-[dY]LWSKNSQPWPESC; thioether (positions not given here); not fully specified (bridges))”: in the experiment on KgpF, the “MALDI-TOF-MS peak intensity, Number of additions 1” value is listed as 5; the “MALDI-TOF-MS peak intensity, Number of additions 2” value came out at 1; the “MALDI-TOF-MS peak intensity, Number of additions 0” value came out at 3.
As to “YG288 ({CH2CO}-[dY]SNFRIWRYSNSSC; thioether N-14 (inferred))”, in the experiment with OltF v 2.1 (Table 11), the “Peak intensity, The number of prenyl groups added 0” value is reported as 1 and the “Peak intensity, The number of prenyl groups added 1” value worked out at 5.
For the substance “YG292 ({CH2CO}-[dY]IRRPWVPIIYLGC; thioether N-14 (inferred))”, in the experiment on OltF v 2.1 (Table 11), the “Peak intensity, The number of prenyl groups added 0” value came to 2 and the “Peak intensity, The number of prenyl groups added 1” value is 5.
For the substance “YG299 (Ac-[dY]CDVSGRWGYFPC; thioether (positions not given here); not fully specified (bridges))”, in the experiment on OltF v 2.1 (Table 11), the “Peak intensity, The number of prenyl groups added 0” value was 3 and the “Peak intensity, The number of prenyl groups added 1” value is given as 5.
“YG296 ({CH2CO}-[dY]WYYAWDQTYKAFPC; thioether N-15 (inferred))”: in the experiment on OltF v 2.1 (Table 11), the “Peak intensity, The number of prenyl groups added 0” value turned out to be 3; the “Peak intensity, The number of prenyl groups added 1” value is 2; the “Peak intensity, The number of prenyl groups added 2” value is on record as 1.
With “DNT065 (Ac-[dY]NNRERGSDNNWNNPC; thioether (positions not given here); not fully specified (bridges))”, in the experiment on OltF v 2.1 (Table 12), the “Peak intensity, The number of prenyl groups added 0” value was determined as 3 and the “Peak intensity, The number of prenyl groups added 1” value was 5.
Consider “DNT066 (Ac-[dY]NNRERGSDVVWVVPC; thioether (positions not given here); not fully specified (bridges))”, for which, in the experiment on OltF v 2.1 (Table 12), the “Peak intensity, The number of prenyl groups added 0” value was 4 and the “Peak intensity, The number of prenyl groups added 1” value is 5.
For “Met11: cyclic peptide SEQ ID NO: 363 identified by screening with MetAP1 as a target ({CH2CO}-[dY]HTDPFKAWHRRSCNSG; thioether N-14 (inferred); not fully specified)”, in the experiment on KgpF (setting [1]), the “Peak intensity, The number of prenyl groups added 0” value is recorded as 1 and the “Peak intensity, The number of prenyl groups added 1” value is reported as 5.
For the substance “DNT034 (Ac-[dY]NNRERGSDYFWLPPC; thioether (positions not given here); not fully specified (bridges))”, in the experiment on OltF v 2.1 (Table 12), the “Peak intensity, The number of prenyl groups added 0” value is listed as 1 and the “Peak intensity, The number of prenyl groups added 1” value is reported as 5.
For “Met9: prenylated cyclic peptide identified by screening with MetAP1 as a target (Ac-[dY]KRKNCLVHVW(prenyl)HQCNSGGVS; thioether (positions not given here); not fully specified (C-terminus))”, in the experiment on KgpF (setting [1]), the “Peak intensity, The number of prenyl groups added 0” value is on record as 1 and the “Peak intensity, The number of prenyl groups added 1” value is on record as 5.
Regarding “Clone-M1: artificial cyclic peptide containing a plurality of Trps ([dY]LRLNHTWSTWTSC; thioether (positions not given here); not fully specified (N-terminus, bridges); also: cyclic)”, in the experiment on KgpF, the “MALDI-TOF-MS peak intensity, Number of additions 1” value was 1; the “MALDI-TOF-MS peak intensity, Number of additions 2” value stood at 5; the “MALDI-TOF-MS peak intensity, Number of additions 0” value was 1.
For “Met12: prenylated cyclic peptide identified by screening with MetAP1 as a target ({CH2CO}-[dY]YIIW(prenyl)HRHRIMTVCNSGGVS; thioether N-14 (inferred); not fully specified (C-terminus); also: C-terminus linked to its mRNA (mRNA display))”, in the experiment on KgpF (setting [1]), the “Peak intensity, The number of prenyl groups added 0” value turned out to be 3 and the “Peak intensity, The number of prenyl groups added 1” value is 4.
“Clone-M9: artificial cyclic peptide containing a plurality of Trps (Ac-[dY]SFHWGLAVWDHNC; thioether (positions not given here); not fully specified (bridges))”: in the experiment on KgpF, the “MALDI-TOF-MS peak intensity, Number of additions 1” value is reported as 1; the “MALDI-TOF-MS peak intensity, Number of additions 2” value is 5; the “MALDI-TOF-MS peak intensity, Number of additions 0” value worked out at 1.
Consider “Clone-M2: artificial cyclic peptide containing a plurality of Trps (Ac-[dY]SAWHGKDNYDWFC; thioether (positions not given here); not fully specified (bridges))”, for which, in the experiment with KgpF, the “MALDI-TOF-MS peak intensity, Number of additions 1” value was determined as 5; the “MALDI-TOF-MS peak intensity, Number of additions 2” value amounted to 1; the “MALDI-TOF-MS peak intensity, Number of additions 0” value came to 1.
For “Clone-M8: artificial cyclic peptide containing a plurality of Trps (Ac-[dY]THEWPWRTGWTRC; thioether (positions not given here); not fully specified (bridges))”, in the experiment on KgpF, the “MALDI-TOF-MS peak intensity, Number of additions 1” value is reported as 1; the “MALDI-TOF-MS peak intensity, Number of additions 2” value is given as 5; the “MALDI-TOF-MS peak intensity, Number of additions 3” value came to 1; the “MALDI-TOF-MS peak intensity, Number of additions 0” value stood at 1.
In the case of “Clone-M7: artificial cyclic peptide containing a plurality of Trps (Ac-[dY]LWVLRSDNTPWVC; thioether (positions not given here); not fully specified (bridges))”, in the experiment on KgpF, the “MALDI-TOF-MS peak intensity, Number of additions 1” value was 4; the “MALDI-TOF-MS peak intensity, Number of additions 2” value is given as 5; the “MALDI-TOF-MS peak intensity, Number of additions 0” value amounted to 1.
As to “Clone-M3: artificial cyclic peptide containing a plurality of Trps (Ac-[dY]SWSPAWVRQADIC; thioether (positions not given here); not fully specified (bridges))”, in the experiment with KgpF, the “MALDI-TOF-MS peak intensity, Number of additions 1” value worked out at 1; the “MALDI-TOF-MS peak intensity, Number of additions 2” value worked out at 4; the “MALDI-TOF-MS peak intensity, Number of additions 0” value came to 1.
As to “Clone-M4: artificial cyclic peptide containing a plurality of Trps (Ac-[dY]RVSNTWWQRHRWC; thioether (positions not given here); not fully specified (bridges))”, in the experiment on KgpF, the “MALDI-TOF-MS peak intensity, Number of additions 1” value was determined as 4; the “MALDI-TOF-MS peak intensity, Number of additions 2” value turned out to be 1; the “MALDI-TOF-MS peak intensity, Number of additions 3” value worked out at 1; the “MALDI-TOF-MS peak intensity, Number of additions 0” value was 1.
For the substance “Clone-M6: artificial cyclic peptide containing a plurality of Trps (Ac-[dY]ILSQENHVWSLWC; thioether (positions not given here); not fully specified (bridges))”, in the experiment with KgpF, the “MALDI-TOF-MS peak intensity, Number of additions 1” value was 5; the “MALDI-TOF-MS peak intensity, Number of additions 2” value was determined as 5; the “MALDI-TOF-MS peak intensity, Number of additions 0” value is recorded as 1.
For the substance “Met13: cyclic peptide SEQ ID NO: 364 identified by screening with MetAP1 as a target ({CH2CO}-[dY]VTWKGPYRWRVCNSG; thioether N-13 (inferred); not fully specified)”, in the experiment on KgpF (setting [1]), the “Peak intensity, The number of prenyl groups added 0” value was determined as 1; the “Peak intensity, The number of prenyl groups added 1” value came to 5; the “Peak intensity, The number of prenyl groups added 2” value is 1.
